{"source": "patent US6599499B1", "about": "“Uses of diterpenoid triepoxides as an anti-proliferative agent” (priority 1999, dated 2003)", "key": {"HT1080 tumor cells": {"test_system": "HT1080 tumor cells", "experiment": "Nude mouse xenograft, established HT1080 tumors", "type": "in vivo, nude mice", "settings": "PG490-88 0.75 mg/kg IP days 0-5 and 7-11, CPT-11 11 mg/kg IV days 1, 5, 9", "protocol": "Mice. […] Nude mouse xenograft model. HT1080 tumor cells were grown in tissue culture flasks and harvested using EDTA and trypsin. Cells were centrifuged and the concentration of viable cells was appropriately adjusted. […] Tumor size was monitored after tumor cell implantation by measuring the width, length and thickness of the tumors and using a formula to calculate the volume. […] Control mice were left untreated. […] Combination therapy mice received both PG490-88 and CPT-11 treatments."}, "HT1080 cells": {"test_system": "HT1080 cells", "experiment": "Apoptosis by Annexin V and Propidium Iodide staining, HT1080 cells", "type": "cell-based, human", "set-up": "unit of the concentration uncertain", "settings": "HT1080, 20 h, PG490 pretreatment 4 h then CPT-11 16 h", "protocol": "HT1080 cells were treated as shown and harvested for analysis of apoptosis by Annexin V and Propidium Iodide staining 20 h after treatment. In experiments with a combination of PG490 and CPT-11, cells were pretreated with PG490 for 4 h followed by the addition of CPT-11 for 16 h."}, "[1]": {"test_system": "HT-29 human colon cancer cell line tumors", "experiment": "Nude mouse xenograft, established HT-29 colon cancer tumors", "type": "in vivo, nude mice", "protocol": "HT-29 tumor cells grown in tissue culture were harvested and implanted intradermally on the backs of nude mice. Tumor size was monitored by measuring the dimensions of each tumor and calculating tumor volume with a formula. […] PG490-88 treatment at 0.25 mg/kg was administered daily i.p. 5 days per week for 2 weeks. Navelbine at 10 mg/kg was given i.v. on days 0 and 7. Mice in the combination treatment group received PG490-88 i.p. and Navelbine i.v. at the appropriate times. The treatments were given to mice at 100 μl per 10 g of mouse body weight. Tumor dimensions were measured periodically for calculation of tumor volumes. […] The data are presented as mean percent change in tumor volume from day 0 for each treatment group. Toxicity of the treatment was monitored by weighing the mice daily 5 days per week. In FIG. 8, a comparison is provided for tumor volumes on Days 0 and 14. Tumor dimensions were measured periodically for calculation of tumor volumes, and the final determinations were made on day 14."}, "H23 human tumor cells": {"test_system": "H23 human tumor cells", "settings": "day 14; PG490-88 0.25 mg/kg/day; taxol 10 mg/kg/day; IP", "protocol": "Cell death reagents and assays. Cell viability was measured by an MTT assay as recently described (Lee et al. (1999) J. Biol. Chem. 274:13451-13455. z-VAD-fluoromethylketone (z-VAD.fmk) was obtained from Alexis Biochemicals, San Diego, Calif. The effect of z-VAD.fmk on cell viability was analyzed by annexin and propidium iodide staining followed by FACS analysis according to the manufacturer's protocol (Clontech Laboratories, Palo Alto, Calif.). The analysis of apoptosis in histologic sections was done by terminal deoxynucleotidyl transferase (TdT)-mediated d-UTP nick end labeling (TUNEL) of slides from paraffin sections of day 3 tumors harvested from the mice 24 h after the second of two daily treatments with PG490-88 or saline. TUNEL staining was done according to the manufacturer's protocol (Boehringer Mannheim, Indianapolis, Ind.) and then the histology slides were counterstained with methyl green. DNA was isolated from cells for analysis of internucleosomal DNA laddering followed by agarose gel electrophoresis and ethidium bromide staining.\nNude mouse xenograft model. Female NCr nude mice were purchased from Taconic, Germantown, N.Y., and were generally 20-24 grams when used. Mice were kept in autoclaved filter-top microisolator cages with autoclaved water and sterile food ad lib. The cages were maintained in an isolator unit providing filtered air (Lab Products, Inc., Maywood, N.J.). Tumor cells were grown and harvested as described above. NCr nude mice were injected intradermally with 5×10^6 tumor cells. In some experiments, treatment was initiated on the day of tumor cell implantation. […] Mice were treated IP daily for 5 days per week.\nH23 tumor cells were implanted intradermally in nude mice. When the tumors reached approximately 100 mm^3, daily IP treatment with PG490-88 was initiated. […] The data in FIG. 3 represents the measurement of H23 tumor volume on day 14 after the initiation of treatment. Nude mice bearing xenografts of H23 human tumor cells were treated daily as shown. The data represent the means and the standard errors of the means of the tumor volumes as percent of the day 0 tumor volumes for each animal measured day 3, 6, 10 and 14 days after the initiation of treatment. There were 5 mice per group."}, "Dx5 cells": {"test_system": "Dx5 cells", "settings": "cited from earlier work"}}, "data": [{"smiles": "CCc1c2c(nc3ccc(OC(=O)N4CCC(N5CCCCC5)CC4)cc13)-c1cc3c(c(=O)n1C2)COC(=O)[C@]3(O)CC", "note": "[CPT-11, irinotecan, reference compound]", "values": [{"measurement": "TV Mean Day 4", "setting": "HT1080 tumor cells", "value": 157}, {"measurement": "TV Mean Day 7", "setting": "HT1080 tumor cells", "value": 209}, {"measurement": "TV Mean Day 10", "setting": "HT1080 tumor cells", "value": 268}, {"measurement": "TV Mean Day 14", "setting": "HT1080 tumor cells", "value": 495}, {"measurement": "TV Mean Day 0", "setting": "HT1080 tumor cells; baseline", "value": 107}, {"measurement": "Apoptotic Cells (%)", "setting": "HT1080 cells; CPT-11 (10 µM) alone, (10 μM) in combination with PG490 5 ng/ml", "value": 5, "unit": "%"}, {"measurement": "Apoptotic Cells (%)", "setting": "HT1080 cells; PG490 5 ng/ml, CPT-11 (5 µM) alone, (5 μM) in combination", "value": 0, "unit": "%"}]}, {"smiles": "CCC1=C[C@@H]2CN(C1)Cc1c([nH]c3ccccc13)[C@@](C(=O)OC)(c1cc3c(cc1OC)N(C)[C@H]1[C@@](O)(C(=O)OC)[C@H](OC(C)=O)[C@]4(CC)C=CCN5CC[C@]31[C@@H]54)C2", "note": "[Navelbine, vinorelbine, reference compound]", "values": [{"measurement": "increase in tumor volume from day 0 by day 14", "setting": "[1]; PG490-88 0.25 mg/kg i.p. 5 days per week for 2 weeks, Navelbine 10 mg/kg i.v. days 0 and 7", "value": 343, "unit": "%"}, {"measurement": "Day 0 Tumor Volume (mm^3) Mean", "setting": "[1]; baseline at grouping, before treatment", "value": 109, "unit": "mm^3"}]}, {"smiles": "CC(=O)O[C@H]1C(=O)[C@@]2(C)[C@H]([C@H](OC(=O)c3ccccc3)[C@]3(O)C[C@H](OC(=O)[C@H](O)[C@@H](NC(=O)c4ccccc4)c4ccccc4)C(C)=C1C3(C)C)[C@]1(OC(C)=O)CO[C@@H]1C[C@@H]2O", "note": "[taxol, reference compound]", "values": [{"measurement": "tumor volume as % of the vehicle control", "setting": "H23 human tumor cells", "value": 42, "unit": "%"}, {"measurement": "fold more resistant than the MES-SA parent cell line", "setting": "Dx5 cells", "value": 1000, "unit": "fold"}]}]}
